# Like-named read-outs stand apart in the source and are kept apart here.
# Legend:
# [1] = test system: Candida parapsilosis; assay: Antifungal MIC; type: cell-based; settings: Lodderomyces parapsilosis
# [2] = test system: Candida albicans; assay: Antifungal MIC; type: cell-based
# [3] = read-out: Cmax of unmetabolized ketoconazole; humans, 400 mg dose; cited from earlier work
# [4] = SBA for NDA 18-533; cited from earlier work
# [5] = Toxicokinetics in the 28 day dog study of DIO-902 (with racemic ketoconazole group a); settings: beagle, plasma, dogs; for concentration at 0 h / concentration at 1 h / concentration at 2 h / concentration at 4 h / concentration at 8 h / concentration at 12 h: Drug concentration in plasma; for AUC(0-t): AUC(0-12); for Tmax: Tmax Range;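 on all read-outs here: beagle dogs dosed orally once daily within a 28-day GLP study, 3 animals per sex per group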
# [6] = female, oral, 20 mg/kg, group a: 20 mg/kg oral (after 40 mg/kg days 1-9, pause), day 28, F
# [7] = female, po, 20 mg/kg, group a: 20 mg/kg oral (after 40 mg/kg days 1-9, pause), day 28, F
# [8] = female, po, 40 mg/kg, group a: 40 mg/kg oral, day 1, F
# [9] = male, oral, 20 mg/kg, group a: 20 mg/kg oral (after 40 mg/kg days 1-9, pause), day 28, M
# [10] = male, po, 20 mg/kg, group a: 20 mg/kg oral (after 40 mg/kg days 1-9, pause), day 28, M
# [11] = male, po, 40 mg/kg, group a: 40 mg/kg oral, day 1, M
smiles,measurement,setting,value
"CC(=O)N1CCN(c2ccc(OCC3COC(Cn4ccnc4)(c4ccc(Cl)cc4Cl)O3)cc2)CC1 (racemic) [Racemic ketoconazole, 1-acetyl-4-[4-[[2-(2,4-dichlorophenyl)-2-[(1H-imidazol-1-yl)-methyl]-1,3-dioxolan-4-yl]methoxy]phenyl]piperazine]",MIC,"[1]; DSM05784, 48 h",0.03 µg/mL
same,MIC,"[1]; DSM11224, 48 h",< 0.015 µg/mL
same,MIC,[2]; 48 h,< 0.015 µg/mL
same,MIC,"[2]; DSM11225, 48 h",< 0.015 µg/mL
same,MIC,"[2]; DSM11943, 48 h",< 0.015 µg/mL
same,MIC,"[2]; DSM11944, 48 h",< 0.015 µg/mL
same,MIC,"[2]; DSM11945, 48 h",0.03 µg/mL
same,MIC,"[2]; DSM11948, 48 h",< 0.015 µg/mL
same,MIC,"[2]; DSM11949, 48 h",0.125 µg/mL
same,Cmax,[3],12.3 µM
same,carcinogenicity,[4],non-carcinogenic
same,concentration at 0 h,[5]; [6],< 250 ng/mL
same,concentration at 1 h,[5]; [6],< 250 ng/mL
same,concentration at 2 h,[5]; [6],270 ng/mL
same,concentration at 4 h,[5]; [6],350 ng/mL
same,concentration at 8 h,[5]; [6],310 ng/mL
same,concentration at 12 h,[5]; [6],< 250 ng/mL
same,AUC(0-t),"[5]; female, po, 20 mg/kg, group a: 20 mg/kg oral (after 40 mg/kg days 1-9, pause), day 28, F, n = 1",4700 ng·h/mL
same,Cmax,[5]; [7],550 ng/mL
same,Tmax,[5]; [7],2 to 8 h
same,AUC(0-t),[5]; [8],185000 ng·h/mL
same,Cmax,[5]; [8],21300 ng/mL
same,concentration at 0 h,[5]; [8],< 250 ng/mL
same,concentration at 1 h,[5]; [8],4290 ng/mL
same,concentration at 2 h,[5]; [8],12300 ng/mL
same,concentration at 4 h,[5]; [8],20100 ng/mL
same,concentration at 8 h,[5]; [8],18300 ng/mL
same,concentration at 12 h,[5]; [8],14800 ng/mL
same,Tmax,[5]; [8],4 to 8 h
same,concentration at 0 h,[5]; [9],< 250 ng/mL
same,concentration at 1 h,[5]; [9],< 250 ng/mL
same,concentration at 2 h,[5]; [9],280 ng/mL
same,concentration at 4 h,[5]; [9],< 250 ng/mL
same,concentration at 8 h,[5]; [9],< 250 ng/mL
same,concentration at 12 h,[5]; [9],< 250 ng/mL
same,AUC(0-t),"[5]; male, po, 20 mg/kg, group a: 20 mg/kg oral (after 40 mg/kg days 1-9, pause), day 28, M, n = 1",3420 ng·h/mL
same,Cmax,[5]; [10],510 ng/mL
same,Tmax,[5]; [10],1 to 8 h
same,AUC(0-t),[5]; [11],143000 ng·h/mL
same,Cmax,[5]; [11],16600 ng/mL
same,concentration at 0 h,[5]; [11],< 250 ng/mL
same,concentration at 1 h,[5]; [11],5600 ng/mL
same,concentration at 2 h,[5]; [11],8870 ng/mL
same,concentration at 4 h,[5]; [11],10800 ng/mL
same,concentration at 8 h,[5]; [11],16600 ng/mL
same,concentration at 12 h,[5]; [11],12800 ng/mL
same,Tmax,[5]; [11],8 h

# From patent US11478471B2, “Methods and compositions for treating diabetes, metabolic syndrome and other conditions” (priority 2005, dated 2022)
